From patent publication US9938281B2 (Merck Sharp & Dohme Corp., priority 2012, dated 2018) come the findings set out here.

One assay addresses T1, PI3K-delta (Homo sapiens, UniProt O00329).
T1 construct: purchased Upstate; Millipore 14-604
Kind of assay: HTRF PI3K biochemical assay, delta isoform. The settings on record: form screened (neutral or TFA salt) given, read-out: PI3Kdelta IC50. (Time-resolved FRET reads energy transfer from a long-lived donor to a nearby acceptor.)

Another assay addresses T2, PI3K-alpha (Homo sapiens, UniProt P42336).
T2 construct: purchased Upstate; Millipore 14-602
Kind of assay: HTRF PI3K biochemical assay, alpha isoform. The settings on record: ratio PI3K-alpha IC50 value / PI3K-delta IC50 value.

T2 sequence (P42336 whole entry): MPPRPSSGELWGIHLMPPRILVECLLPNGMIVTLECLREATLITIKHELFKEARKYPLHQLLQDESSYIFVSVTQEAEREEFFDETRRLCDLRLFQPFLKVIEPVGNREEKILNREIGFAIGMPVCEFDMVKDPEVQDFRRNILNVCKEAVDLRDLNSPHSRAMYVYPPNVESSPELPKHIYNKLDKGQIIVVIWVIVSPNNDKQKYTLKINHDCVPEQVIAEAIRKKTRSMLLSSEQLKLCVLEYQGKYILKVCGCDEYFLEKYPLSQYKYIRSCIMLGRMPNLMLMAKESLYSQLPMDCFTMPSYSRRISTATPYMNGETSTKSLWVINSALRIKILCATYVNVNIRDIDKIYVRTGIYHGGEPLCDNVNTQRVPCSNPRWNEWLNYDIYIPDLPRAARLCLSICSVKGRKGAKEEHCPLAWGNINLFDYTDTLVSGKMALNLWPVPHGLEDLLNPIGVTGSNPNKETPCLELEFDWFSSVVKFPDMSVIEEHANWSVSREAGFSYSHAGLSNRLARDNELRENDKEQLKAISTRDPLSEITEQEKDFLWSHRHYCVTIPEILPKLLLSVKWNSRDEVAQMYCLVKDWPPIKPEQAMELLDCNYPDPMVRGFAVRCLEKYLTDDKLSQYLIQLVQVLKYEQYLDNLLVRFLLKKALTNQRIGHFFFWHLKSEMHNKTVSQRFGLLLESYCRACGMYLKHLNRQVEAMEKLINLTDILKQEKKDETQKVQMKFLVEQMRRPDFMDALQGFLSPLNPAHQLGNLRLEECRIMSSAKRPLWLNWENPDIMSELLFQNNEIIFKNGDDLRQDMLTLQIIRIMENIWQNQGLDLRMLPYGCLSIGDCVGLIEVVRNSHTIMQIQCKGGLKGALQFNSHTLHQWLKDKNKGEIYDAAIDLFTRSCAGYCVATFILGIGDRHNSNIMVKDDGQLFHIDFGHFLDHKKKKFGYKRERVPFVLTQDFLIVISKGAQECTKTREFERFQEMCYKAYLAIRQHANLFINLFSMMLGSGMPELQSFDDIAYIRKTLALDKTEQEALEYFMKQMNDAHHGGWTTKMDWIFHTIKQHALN
T2 sequence (P27986 whole entry partner): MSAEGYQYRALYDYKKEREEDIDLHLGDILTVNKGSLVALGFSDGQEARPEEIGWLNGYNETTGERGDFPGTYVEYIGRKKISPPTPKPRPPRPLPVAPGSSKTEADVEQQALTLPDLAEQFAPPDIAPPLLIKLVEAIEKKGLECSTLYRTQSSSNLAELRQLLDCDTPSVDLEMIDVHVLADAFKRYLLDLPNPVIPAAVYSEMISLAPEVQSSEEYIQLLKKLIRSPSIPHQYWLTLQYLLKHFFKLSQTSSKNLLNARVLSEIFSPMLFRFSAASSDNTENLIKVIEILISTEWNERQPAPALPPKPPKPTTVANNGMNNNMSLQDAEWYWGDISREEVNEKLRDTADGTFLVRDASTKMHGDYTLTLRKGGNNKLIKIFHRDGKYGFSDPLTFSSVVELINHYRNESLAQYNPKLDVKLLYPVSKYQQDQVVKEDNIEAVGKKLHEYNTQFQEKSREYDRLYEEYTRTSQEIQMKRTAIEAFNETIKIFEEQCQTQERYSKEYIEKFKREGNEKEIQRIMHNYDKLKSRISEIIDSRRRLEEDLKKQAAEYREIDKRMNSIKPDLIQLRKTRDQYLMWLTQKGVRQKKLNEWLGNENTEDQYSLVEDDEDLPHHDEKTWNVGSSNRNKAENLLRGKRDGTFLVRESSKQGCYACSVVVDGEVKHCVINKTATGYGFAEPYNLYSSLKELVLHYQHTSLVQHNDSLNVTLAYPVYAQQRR
T1 sequence (O00329 whole entry): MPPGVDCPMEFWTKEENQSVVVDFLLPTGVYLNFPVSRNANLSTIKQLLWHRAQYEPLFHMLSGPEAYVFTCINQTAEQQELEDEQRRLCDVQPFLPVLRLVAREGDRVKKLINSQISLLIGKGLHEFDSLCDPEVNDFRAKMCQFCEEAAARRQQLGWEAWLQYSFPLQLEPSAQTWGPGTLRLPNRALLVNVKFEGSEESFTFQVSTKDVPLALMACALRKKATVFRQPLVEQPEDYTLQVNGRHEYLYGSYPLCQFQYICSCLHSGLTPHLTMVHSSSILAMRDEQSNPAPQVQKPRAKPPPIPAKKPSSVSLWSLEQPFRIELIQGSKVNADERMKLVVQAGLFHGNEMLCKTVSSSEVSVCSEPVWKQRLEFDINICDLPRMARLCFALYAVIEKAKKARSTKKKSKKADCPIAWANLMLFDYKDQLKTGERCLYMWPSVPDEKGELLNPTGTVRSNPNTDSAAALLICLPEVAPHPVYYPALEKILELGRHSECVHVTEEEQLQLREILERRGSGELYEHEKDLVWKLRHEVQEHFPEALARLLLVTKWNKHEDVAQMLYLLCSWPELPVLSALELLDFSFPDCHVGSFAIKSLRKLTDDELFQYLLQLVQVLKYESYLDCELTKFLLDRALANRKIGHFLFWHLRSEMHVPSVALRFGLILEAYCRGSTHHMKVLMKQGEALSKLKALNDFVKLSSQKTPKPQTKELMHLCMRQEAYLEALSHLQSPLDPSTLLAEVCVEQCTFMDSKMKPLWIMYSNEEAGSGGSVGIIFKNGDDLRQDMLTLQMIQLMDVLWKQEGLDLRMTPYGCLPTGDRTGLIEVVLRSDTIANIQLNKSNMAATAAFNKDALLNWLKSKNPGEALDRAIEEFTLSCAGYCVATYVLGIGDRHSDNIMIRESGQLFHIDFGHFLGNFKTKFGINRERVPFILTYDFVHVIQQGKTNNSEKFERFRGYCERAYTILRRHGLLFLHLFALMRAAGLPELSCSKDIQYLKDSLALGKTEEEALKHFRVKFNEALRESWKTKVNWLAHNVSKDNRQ
T1 sequence (P27986 whole entry partner): as the sequence (P27986 whole entry partner) above

As for `CCn1c(-c2cnc(C)nc2)nc2c(N[C@H]3CCN(C(=O)C4C5CCNC54)C3)ncnc21` (mixture of isomers) [Compound 2-85, N-[(3S)-1-(1(R and S), 5(R and S), 6(R and S)-2-azabicyclo[3.1.0]hex-6-ylcarbonyl)pyrrolidin-3-yl]-9-ethyl-8-(2-methylpyrimidin-5-yl)-9H-purin-6-amine], the IC50 on PI3K-delta stood at 7.3 nM. The “Selectivity versus PI3Kalpha” value on PI3K-alpha is on record as greater than 10.
For `CCC(=O)N1CC[C@H](Nc2ncnc3c2nc(-c2cnn(CC)c2C)n3CC2CC2)C1` [Compound 9-3, 9-(cyclopropylmethyl)-8-(1-ethyl-5-methyl-1H-pyrazol-4-yl)-N-[(3S)-1-propanoylpyrrolidin-3-yl]-9H-purin-6-amine], in that order: 67 nM and greater than 10.
For `CCn1c(-c2cnc(C)nc2)nc2c(N[C@H]3CCN(C(=O)NC(C)C)C3)ncnc21` [Compound 12-19, (3S)-3-{[9-ethyl-8-(2-methylpyrimidin-5-yl)-9H-purin-6-yl]amino}-N-(1-methylethyl)pyrrolidine-l-carboxamide], in that order: 13 nM and greater than 10.
In the case of `CCC(=O)N1CC[C@H](Nc2ncnc3c2nc(C2CC2)n3C)C1` [Compound 7-9, 8-cyclopropyl-9-methyl-N-[(3S)-1-propanoylpyrrolidin-3-yl]-9H-purin-6-amine], the IC50 on PI3K-delta amounted to 98 nM. In addition, the “Selectivity versus PI3Kalpha” value on PI3K-alpha is on record as greater than 10.
For `CCNC(=O)c1nc2c(N[C@H]3CCN(C(=O)C4CC4)C3)ncnc2n1CC` [Compound 6-19, 6-{[(3S)-1-(cyclopropylcarbonyl)pyrrolidin-3-yl]amino}-N,9-diethyl-9H-purine-8-carboxamide], in that order: 31 nM and greater than 10.
For `CCn1c(C#Cc2cncnc2)nc2c(N[C@H]3CCN(C(=O)C4CC4)C3)ncnc21` [Compound 16-2, N-[(3S)-1-(cyclopropylcarbonyl)pyrrolidin-3-yl]-9-ethyl-8-(pyrimidin-5-ylethynyl)-9H-purin-6-amine], in that order: 20 nM and greater than 10.
For the compound `CCn1c(C(F)F)nc2c(N[C@H]3CCN(C(=O)C4CC45CCCC5)C3)ncnc21` (single isomer, unassigned) [Compound 7-20, (S or R)-8-(difluoromethyl)-9-ethyl-N-[(3S)-1-(spiro[2.4]hept-1-ylcarbonyl)pyrrolidin-3-yl]-9H-purin-6-amine], on PI3K-delta, the IC50 was found to be 710 nM. For the same compound, the “Selectivity versus PI3Kalpha” value at PI3K-alpha is reported as greater than 10.
For `CCn1c(-c2cnc(C)nc2)nc2c(NC3CN(C(=O)C4CC4)CC3C)ncnc21` (single isomer, unassigned) [Compound 2-87, N-[(3S,4R or 3R,4S)-1-(cyclopropylcarbonyl)-4-methylpyrrolidin-3-yl]-9-ethyl-8-(2-methylpyrimidin-5-yl)-9H-purin-6-amine], in that order: 1.7 nM and greater than 10.
For `CCn1c(C(F)F)nc2c(N[C@H]3CCN(C(=O)C4CC45CCCC5)C3)ncnc21` (single isomer, unassigned) [Compound 7-21, (S or R)-8-(difluoromethyl)-9-ethyl-N-[(3S)-1-(spiro[2.4]hept-1-ylcarbonyl)pyrrolidin-3-yl]-9H-purin-6-amine], in that order: 2.4 nM and greater than 10.
For `CCn1c(-c2cnc(C)nc2)nc2c(N[C@H]3CC[C@H](C(=O)N4CCC4)C3)ncnc21` [Compound 5-2, N-[(1S,3S)-3-(azetidin-1-ylcarbonyl)cyclopentyl]-9-ethyl-8-(2-methylpyrimidin-5-yl)-9H-purin-6-amine], in that order: 35 nM and greater than 10.
In the case of `CCn1c(-c2cnc(C)nc2)nc2c(N[C@H]3CCN(C(=O)[C@H]4CC[C@@H](O)CC4)C3)ncnc21` [Compound 2-98, cis-4-{[(3S)-3-{[9-ethyl-8-(2-methylpyrimidin-5-yl)-9H-purin-6-yl]amino}pyrrolidin-1-yl]carbonyl}cyclohexanol], the IC50 at PI3K-delta is 2.8 nM. For the same compound, on PI3K-alpha, the “Selectivity versus PI3Kalpha” value is greater than 10.
Consider `CCCN1CC(Nc2ncnc3c2nc(-c2cnc(C)nc2)n3CC)CC1=O` (racemic) [Compound 14-4, 4(S and R)-{[9-ethyl-8-(2-methylpyrimidin-5-yl)-9H-purin-6-yl]amino}-1-propylpyrrolidin-2-one], for which the IC50 at PI3K-delta was 24 nM. Further, the “Selectivity versus PI3Kalpha” value at PI3K-alpha is greater than 10.
For `CCOC(=O)CCNC(=O)N1CC[C@H](Nc2ncnc3c2nc(-c2cnc(C)nc2)n3CC)C1` [Compound 12-17, ethyl N-{[(3S)-3-{[9-ethyl-8-(2-methylpyrimidin-5-yl)-9H-purin-6-yl]amino}pyrrolidin-1-yl]carbonyl}-beta-alaninate], in that order: 13 nM and greater than 10.
Consider `CCC(=O)N1CC[C@H](Nc2ncnc3c2nc(-c2cnn(CC)c2C)n3C)C1` [Compound 2-3, (S)-1-(3-((8-(1-ethyl-5-methyl-1H-pyrazol-4-yl)-9-methyl-9H-purin-6-yl)amino)pyrrolidin-1-yl)propan-1-one], for which the IC50 on PI3K-delta is less than 1 nM. The “Selectivity versus PI3Kalpha” value at PI3K-alpha is greater than 10.
For `CCC(=O)N1CC[C@H](Nc2ncnc3c2nc(-c2cncc(N)c2)n3C)C1` [Compound 3-13, 8-(5-aminopyridin-3-yl)-9-methyl-N-[(3S)-1-propanoylpyrrolidin-3-yl]-9H-purin-6-amine], in that order: 2.4 nM and greater than 10.
For `CCn1c(C#Cc2ccccc2)nc2c(N[C@H]3CCN(C(=O)C4CC4)C3)ncnc21` [Compound 16-1, N-[(3S)-1-(cyclopropylcarbonyl)pyrrolidin-3-yl]-9-ethyl-8-(phenylethynyl)-9H-purin-6-amine], in that order: 1.9 nM and greater than 10.
For `CCC(=O)N1CC[C@H](Nc2ncnc3c2nc(-c2ccc4cc[nH]c4c2)n3C)C1` [Compound 3-4, (S)-1-(3-((8-(1H-indol-6-yl)-9-methyl-9H-purin-6-yl)amino)pyrrolidin-1-yl)propan-1-one], in that order: 7.7 nM and greater than 10.
Regarding `CCn1c(-c2cnc(C)nc2)nc2c(N[C@H]3CCN(C(=O)N4CC[C@H](F)C4)C3)ncnc21` [Compound 12-13, 9-ethyl-N-[(3S)-1-{[(3S)-3-fluoropyrrolidin-1-yl]carbonyl}pyrrolidin-3-yl]-8-(2-methylpyrimidin-5-yl)-9H-purin-6-amine], the IC50 on PI3K-delta came to 1.7 nM. In addition, on PI3K-alpha, the “Selectivity versus PI3Kalpha” value is on record as greater than 10.
In the case of `CCCN1CC[C@H](Nc2ncnc3c2nc(-c2cnn(CC)c2C)n3C)C1` [Compound 10-1, 8-(1-ethyl-5-methyl-1H-pyrazol-4-yl)-9-methyl-N-[(3S)-1-propylpyrrolidin-3-yl]-9H-purin-6-amine], the IC50 on PI3K-delta worked out at 42 nM. In addition, the “Selectivity versus PI3Kalpha” value on PI3K-alpha was greater than 10.
For `CCn1c(-c2cnc(C)nc2)nc2c(N[C@H]3CCN(C(=O)OCCCN(C)C)C3)ncnc21` [Compound 13-11, 3-(dimethylamino)propyl (3S)-3-{[9-ethyl-8-(2-methylpyrimidin-5-yl)-9H-purin-6-yl]amino}pyrrolidine-1-carboxylate], in that order: 4.3 nM and greater than 10.
For `CCn1c(-c2cnc(C)nc2)nc2c(N[C@H]3CC[C@@H](C(=O)N(C)C)C3)ncnc21` [Compound 5-4, (1R,3S)-3-{[9-ethyl-8-(2-methylpyrimidin-5-yl)-9H-purin-6-yl]amino}-N,N-dimethylcyclopentanecarbox-amide], in that order: 5.3 nM and greater than 10.
With `CCn1c(-c2cnc(C)nc2)nc2c(N[C@H]3CCN(C(=O)NCC4CCS(=O)(=O)C4)C3)ncnc21` (mixture of isomers) [Compound 12-20, (3S)-N-[((S and R)-1,1-dioxidotetrahydrothiophen-3-yl)methyl]-3-{[9-ethyl-8-(2-methylpyrimidin-5-yl)-9H-purin-6-yl]amino}pyrrolidine-1-carboxamide], at PI3K-delta, the IC50 was found to be 9.4 nM. In addition, the “Selectivity versus PI3Kalpha” value at PI3K-alpha is on record as greater than 10.
For `CCn1c(-c2cnc(C)nc2)nc2c(N[C@H]3CCN(C(=O)C4CC4(F)F)C3)ncnc21` (mixture of isomers) [Compound 2-55, N-{(3S)-1-[((R and S)-2,2-difluorocyclopropyl)carbonyl]pyrrolidin-3-yl}-9-ethyl-8-(2-methylpyrimidin-5-yl)-9H-purin-6-amine], in that order: 1.5 nM and greater than 10.
For `CCn1c(-c2cnc(C)nc2)nc2c(NC3CCCC(NC(=O)c4cocn4)C3)ncnc21` (single isomer, unassigned) [Compound 5-8, N-(1S,3S or 1R,3R)-(3-{[9-ethyl-8-(2-methylpyrimidin-5-yl)-9H-purin-6-yl]amino}cyclohexyl)-1,3-oxazole-4-carboxamide], in that order: 12 nM and greater than 10.
For `CCn1c(-c2ccc(C(F)(F)F)nc2)nc2c(N[C@H]3CCN(C(=O)[C@@H]4CC4(C)C)C3)ncnc21` [Compound 2-51, N-[(3S)-1-{[(1R)-2,2-dimethylcyclopropyl]carbonyl}pyrrolidin-3-yl]-9-ethyl-8-[6-(trifluoromethyl)pyridin-3-yl]-9H-purin-6-amine], in that order: less than 1 nM and greater than 10.
For the compound `CCn1c(-c2cnc(C)nc2)nc2c(N[C@H]3CCN(C(=O)C4(COC)CCC4)C3)ncnc21` [Compound 2-57, 9-ethyl-N-[(3S)-1-{[1-(methoxymethyl)cyclobutyl]carbonyl}pyrrolidin-3-yl]-8-(2-methylpyrimidin-5-yl)-9H-purin-6-amine], the IC50 at PI3K-delta amounted to 7.1 nM. Besides, the “Selectivity versus PI3Kalpha” value on PI3K-alpha is on record as greater than 10.
Take `CCn1c(-c2cnc(C)nc2)nc2c(N[C@H]3CCN(C(=O)NCc4ccco4)C3)ncnc21` [Compound 12-21, (3S)-3-{[9-ethyl-8-(2-methylpyrimidin-5-yl)-9H-purin-6-yl]amino}-N-(furan-2-ylmethyl)pyrrolidine-1-carboxamide]: at PI3K-delta, the IC50 came to 7 nM. Moreover, on PI3K-alpha, the “Selectivity versus PI3Kalpha” value is greater than 10.
